In series [1] the target is T1, Mouse inducible nitric oxide synthase (miNOS) (Mus musculus, UniProt P29477).
T1 construct: prepared from an extract of LPS-treated RAW 264.7 cells and partially purified by DEAE-Sepharose chromatography; endogenous in cells; host or cells: LPS-treated RAW 264.7 cells (mouse macrophage line)
Description: biochemical. The conditions noted are these: for IC50: conversion of [3H]-arginine to [3H]-citrulline, 37° C., 15 minutes, read-out: iNOS.
Description: Nitric oxide synthase activity was measured by monitoring the conversion of [3H]-arginine to [3H]-citrulline. Mouse inducible nitric oxide synthase (miNOS) was prepared from an extract of LPS-treated RAW 264.7 cells and partially purified by DEAE-Sepharose chromatography. […] Enzyme and inhibitors were incubated at 37° C. for 15 minutes in a reaction volume of 100 mL with the following components added to start the reaction: 50 mM Tris (pH 7.6), 1 mg/ml bovine serum albumin, 1 mM DTT, 2 mM CaCl2, 10 mM FAD, 10 mM tetrahydrobiopterin, 30 mM L-arginine containing L-[2,3-3H]-arginine at 300 cpm/pmole and 1 mM NADPH. […] The reaction was terminated by addition of cold stop buffer containing 10 mM EGTA, 100 mM HEPES, pH 5.5 and 1 mM citrulline. [3H]-Citrulline was separated by chromatography on Dowex 50W X-8 cation exchange resin and radioactivity determined with a liquid scintillation counter.

Series [2] deals with T2, Rat brain constitutive nitric oxide synthase (rnNOS) (Rattus norvegicus, UniProt P29476).
T2 construct: prepared from an extract of rat cerebellum and partially purified by DEAE-Sepharose chromatography; from tissue; host or cells: rat cerebellum
Description: Citrulline assay for nitric oxide synthase (cNOS). The series is classed as biochemical. The protocol: Nitric oxide synthase activity was measured by monitoring the conversion of [3H]-arginine to [3H]-citrulline. Mouse inducible nitric oxide synthase (miNOS) was prepared from an extract of LPS-treated RAW 264.7 cells and partially purified by DEAE-Sepharose chromatography. Rat brain constitutive nitric oxide synthase (rnNOS) was prepared from an extract of rat cerebellum and partially purified by DEAE-Sepharose chromatography. Enzyme and inhibitors were incubated at 37° C. for 15 minutes in a reaction volume of […] with the following components added to start the reaction: 50 mM Tris (pH 7.6), 1 mg/ml bovine serum albumin, 1 mM DTT, 2 mM CaCl2, 10 mM FAD, 10 mM tetrahydrobiopterin, […] L-arginine containing L-[2,3-3H]-arginine at 300 cpm/pmole and 1 mM NADPH. For constitutive NOS, 50 nM calmodulin was also added. The reaction was terminated by addition of cold stop buffer containing 10 mM EGTA, 100 mM HEPES, pH 5.5 and 1 mM citrulline. [3H]-Citrulline was separated by chromatography on Dowex 50W X-8 cation exchange resin and radioactivity determined with a liquid scintillation counter.

Series [3] concerns LPS-induced increase in plasma nitrites. Briefly: In vivo assay: endotoxin (LPS)-induced plasma nitrites in rat. The conditions noted are these: Low Endotoxin in Rat Model. The protocol: Rats were treated with an intraperitoneal injection of 10 mg/kg of endotoxin (LPS) with or without oral administration of the nitric oxice synthase inhibitors. Plasma nitrites were measured 5 hours post-treatment.
IP is the abbreviation for 2-iminopiperidine. LPS is the abbreviation for endotoxin

Series [4] deals with intracellular iNOS in LPS-induced RAW 264.7 cells. Description: Raw cell nitrite assay. The series is classed as cell-based. The conditions noted are these: Mus musculus, RAW264.7, 1 h, read-out: Raw Cell IC50. The protocol: RAW 264.7 cells are plated to confluency on a 96-well tissue culture plate grown overnight (17h) in the presence of LPS to induce NOS. […] The media was removed from each well and the cells are washed twice with Krebs-Ringers-Hepes (25 mM, pH 7.4) with 2 mg/ml glucose. The cells are then placed on ice and incubated with […] of buffer containing L-arginine (30 mM) +/− inhibitors for 1 h. The assay is initiated by warming the plate to 37° C. in a water bath for 1 h. […] To terminate the cellular assay, the plate of cells is placed on ice and the nitrite-containing buffer removed and analyzed for nitrite using a previously published fluorescent determination for nitrite. […] All values are the average of triplicate wells and are compared to a background-subtracted induced set of cells (100% value).

T1 sequence (P29477 whole entry): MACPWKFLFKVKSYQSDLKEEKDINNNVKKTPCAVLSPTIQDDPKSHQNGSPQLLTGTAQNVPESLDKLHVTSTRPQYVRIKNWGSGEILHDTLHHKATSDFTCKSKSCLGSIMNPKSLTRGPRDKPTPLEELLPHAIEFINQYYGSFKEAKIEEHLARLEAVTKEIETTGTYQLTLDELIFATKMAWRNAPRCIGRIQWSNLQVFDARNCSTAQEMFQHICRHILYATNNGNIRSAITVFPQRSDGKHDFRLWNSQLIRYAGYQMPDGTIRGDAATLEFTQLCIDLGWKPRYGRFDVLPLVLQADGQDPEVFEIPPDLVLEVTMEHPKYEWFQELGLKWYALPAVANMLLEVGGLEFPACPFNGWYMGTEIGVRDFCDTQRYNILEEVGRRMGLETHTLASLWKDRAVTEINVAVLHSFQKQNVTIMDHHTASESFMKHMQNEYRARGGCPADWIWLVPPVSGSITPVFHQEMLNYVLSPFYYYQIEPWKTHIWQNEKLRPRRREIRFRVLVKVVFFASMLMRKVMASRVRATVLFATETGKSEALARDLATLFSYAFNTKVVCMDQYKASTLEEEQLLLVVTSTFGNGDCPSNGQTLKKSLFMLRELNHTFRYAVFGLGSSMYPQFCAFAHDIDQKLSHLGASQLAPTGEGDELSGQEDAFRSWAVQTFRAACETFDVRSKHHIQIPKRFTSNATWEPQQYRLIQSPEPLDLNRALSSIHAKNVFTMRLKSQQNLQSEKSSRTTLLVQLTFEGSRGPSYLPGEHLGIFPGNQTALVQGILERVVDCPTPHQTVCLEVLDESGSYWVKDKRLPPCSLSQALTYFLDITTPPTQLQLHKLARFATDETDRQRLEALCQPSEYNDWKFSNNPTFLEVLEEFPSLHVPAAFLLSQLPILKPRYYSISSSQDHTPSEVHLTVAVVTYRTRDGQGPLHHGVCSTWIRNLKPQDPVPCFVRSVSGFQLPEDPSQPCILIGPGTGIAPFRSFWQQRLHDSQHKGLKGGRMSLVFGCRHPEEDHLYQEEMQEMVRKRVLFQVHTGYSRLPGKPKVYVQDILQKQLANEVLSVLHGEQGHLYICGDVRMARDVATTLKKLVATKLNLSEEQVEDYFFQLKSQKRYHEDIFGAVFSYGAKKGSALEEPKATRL
T2 sequence (P29476 whole entry): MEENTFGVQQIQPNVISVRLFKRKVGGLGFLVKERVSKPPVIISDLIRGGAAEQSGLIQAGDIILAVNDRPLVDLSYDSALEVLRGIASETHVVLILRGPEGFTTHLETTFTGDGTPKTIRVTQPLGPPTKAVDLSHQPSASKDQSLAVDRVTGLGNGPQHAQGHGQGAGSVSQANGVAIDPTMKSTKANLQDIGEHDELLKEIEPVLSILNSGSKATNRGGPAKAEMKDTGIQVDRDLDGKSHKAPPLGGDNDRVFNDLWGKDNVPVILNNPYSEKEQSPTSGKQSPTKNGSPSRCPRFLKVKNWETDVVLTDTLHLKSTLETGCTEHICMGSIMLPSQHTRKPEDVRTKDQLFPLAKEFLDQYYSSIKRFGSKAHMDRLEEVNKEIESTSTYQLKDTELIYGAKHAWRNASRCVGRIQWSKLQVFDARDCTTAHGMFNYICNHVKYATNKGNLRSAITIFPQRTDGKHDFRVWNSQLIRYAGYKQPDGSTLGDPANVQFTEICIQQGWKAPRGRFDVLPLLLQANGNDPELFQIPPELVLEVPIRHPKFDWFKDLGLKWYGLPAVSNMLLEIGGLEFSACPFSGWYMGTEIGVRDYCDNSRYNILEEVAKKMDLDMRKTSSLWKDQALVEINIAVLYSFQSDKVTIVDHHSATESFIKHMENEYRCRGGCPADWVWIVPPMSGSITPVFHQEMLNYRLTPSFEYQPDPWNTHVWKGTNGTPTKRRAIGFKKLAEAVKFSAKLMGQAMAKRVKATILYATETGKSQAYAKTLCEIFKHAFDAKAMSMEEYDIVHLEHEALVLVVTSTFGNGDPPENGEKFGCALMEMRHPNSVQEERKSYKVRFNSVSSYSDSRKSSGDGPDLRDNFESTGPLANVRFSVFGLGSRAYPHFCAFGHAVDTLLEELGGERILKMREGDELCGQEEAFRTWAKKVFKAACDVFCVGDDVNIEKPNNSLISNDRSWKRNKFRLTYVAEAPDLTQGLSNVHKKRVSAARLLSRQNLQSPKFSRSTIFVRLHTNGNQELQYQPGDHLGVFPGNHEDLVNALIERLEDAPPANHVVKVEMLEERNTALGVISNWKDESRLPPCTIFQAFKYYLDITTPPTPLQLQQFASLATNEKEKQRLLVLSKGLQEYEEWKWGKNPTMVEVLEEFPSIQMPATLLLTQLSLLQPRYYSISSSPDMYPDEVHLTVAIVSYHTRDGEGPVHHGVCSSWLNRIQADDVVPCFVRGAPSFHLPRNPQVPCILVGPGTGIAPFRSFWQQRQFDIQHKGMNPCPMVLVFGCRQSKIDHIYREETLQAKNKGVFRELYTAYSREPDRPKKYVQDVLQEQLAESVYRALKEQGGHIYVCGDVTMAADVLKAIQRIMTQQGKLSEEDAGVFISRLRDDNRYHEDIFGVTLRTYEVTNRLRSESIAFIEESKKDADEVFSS

A word on the melting point: it is the temperature of the solid-liquid transition. Take `Cl.N=C1CCC2=C(CCCC2)N1` [Example 3, 3,4,5,6,7,8-hexahydro-2[1H]-quinolineimine hydroiodide]: the melting point lay within 150 to 155 °C. For the same molecule, the “iNOS, % @ 10 μM” value in series [1] (10 μM compound, printed as % only (inhibition not stated)) amounted to 43% * 10 μM.
The molecule `CC1CCCC(=N)N1.Cl` (stereo not shown) [Example 8, 2-Imino-6-methylpiperidine hydrochloride] yielded a melting point of 160 to 162 °C. For the same molecule, the IC50 in series [1] came out at 0.16 µM. Further, in series [2], the IC50 came to 0.99 µM.
Broadly, the ED50 is the dose that gives a 50% effect, or the effect in half of the subjects. Read a low ED50 as an effect at a small dose. For `Cl.N=C1CCCCC(C2CCCCC2)N1` (stereo not shown) [Example 96, 7-cyclohexyl-hexahydro-1H-azepin-2-imine, monohydrochloride], the IC50 in series [1] turned out to be 9.3 µM; in series [2] it was 1400 µM. This molecule displayed a median effective dose (ED50) in series [3] (po, administered p.o.) of 3.8 mg/kg.
`C=CCC1CCCCC(=N)N1.Cl` (stereo not shown) [Example 108, hexahydro-7-(2-propenyl)-1H-azepin-2-imine, monohydrochloride]: the IC50 was found to be 0.57 µM in series [4] and 19 µM in series [2]. In series [3] (po, administered p.o.), this molecule yielded an ED50 of 3.7 mg/kg.
The matching figures for `CCCC1CCCCC(=N)N1.Cl` (stereo not shown) [Example 114, hexahydro-7-propyl-1H-azepin-2-imine, monohydrochloride]: 0.55 µM, 7.8 µM and 3.4 mg/kg.
For the molecule `CCCCC1CCCCC(=N)N1.Cl` (stereo not shown) [Example 188, 7-butylhexahydro-1H-azepin-2-imine, monohydrochloride], the IC50 in series [4] came to 0.65 µM; in series [1], 0.55 µM; in series [2], 106 µM. The molecule further came in with an ED50 in series [3] (po, administered p.o.) of 3.7 mg/kg.
With `CCC(CC)CC1CCCCC(=N)N1.Cl` (stereo not shown) [Example 198, 7-(2-ethylbutyl)hexahydro-1H-azepin-2-imine, monohydrochloride], the IC50 was 3.3 µM in series [4], 2.1 µM in series [1] and 652 µM in series [2]. In addition, the 50% effective dose (ED50) in series [3] (determined using iv infusion) amounted to 5 mg/kg.
